Results taken from patent US20040110954A1, “Methods of synthesizing phenol-contining compounds” (priority 2003, published 2004).
Like-named read-outs stand apart in the source and are kept apart here.

Columns and labels:
[1] = Glucuronidation in rat hepatic microsomes with UDPGA; conditions: rat hepatic microsomes ca. 0.5 mg/mL protein, 0.5 uM compound, UDPGA 4 mM, pH 7.4, 37° C.
Experimental: (§1) The standard procedure for these experiments is as follows: incubations were performed in a final volume of 1.0 mL in a heated block at approximately 37° C. Each incubation contained approximately 0.5 mg/mL microsomal protein and 0.5 uM of the compound. The incubations were conducted with 50 mM potassium phosphate buffer (pH 7.4) and, following a 5 min preincubation at 37° C., were initiated by the addition of cofactor (UDPGA, 4 mM). Aliquots were removed every three minutes and were quenched with two volumes of ACN/EtOH/Acetic acid (80:20:1) containing an appropriate internal standard. Samples were store frozen (ca.−70° C.) until analysis for the quantitation of the parent compound by LC/MS methods. The rate of disappearance of each compound was determined from relative concentration versus time profiles fitted to appropriate exponential decay equations. CLint (mL/min/g liver) was calculated using standard scaling factors.

[2] = Glucuronidation in human hepatic microsomes with UDPGA; conditions: human hepatic microsomes ca. 0.5 mg/mL protein, 0.5 uM compound, UDPGA 4 mM, pH 7.4, 37° C.
Experimental: as §1

[3] = In vivo half-life and clearance in the rat; conditions: male Sprague-Dawley rats; crossover: 60 min iv infusion, then oral gavage; plasma, noncompartmental analysis
Experimental: Method for Determining the in vivo Half-life (T½) of Compounds in Table 3. The study was conducted using a crossover design on two separate study days. Three male Sprague-Dawley rats received surgically implanted catheters in the vena cava (via the femoral vein), and in the femoral artery at least three days prior to the study. […] On study day two, the animals (fasted) received the compound by oral gavage (16.0 mL/kg). […] Blood samples were collected prior to dosing and at various times following administration of compounds. Plasma concentrations of the compounds were quantified by an HPLC/MS/MS method (LLQ=10 ng/mL). Noncompartmental analysis was used for pharmacokinetic analysis of plasma concentration versus time data.

[4] = microsomes, pH 7.4
Experimental: as §1

[5] = microsomes, pH 7.4; remark: listed apart in the source
Experimental: as §1

| Molecule | Clint (mL/min/g liver) rat ([1]; Table 1 diphenylureas) | CLint (mL/min/g liver) human ([2]; Table 1 diphenylureas) | further results |
| --- | --- | --- | --- |
| CN(C)S(=O)(=O)c1c(Cl)ccc(NC(=O)Nc2cccc(Cl)c2Cl)c1O [Table 1 Entry 3, N-[4-Chloro-3-(N″,N″-dimethylaminosulfonyl)-2-hydroxyphenyl]-N′-(2,3-dichlorophenyl) urea] | <0.6 mL/min/g liver | <0.6 mL/min/g liver | Clint (mL/min/g liver) rat ([1]; Table 2 squaramide series): 12 mL/min/g liver; CLint (mL/min/g liver) human ([2]; Table 2 squaramide series): 16 mL/min/g liver; Cl [3]: 65 mL/min/kg; T½ [3]: 11.4 min |
| CN(C)S(=O)(=O)c1c(Cl)ccc(NC(=O)Nc2ccccc2Br)c1O [Table 1 Entry 4, N-(2-Bromophenyl)-N′[4-chloro-3-(N″,N″-dimethylaminosulfonyl)-2-hydroxyphenyl] urea] | <0.6 mL/min/g liver | <0.6 mL/min/g liver | Clint (mL/min/g liver) rat ([1]; Table 2 squaramide series): 5.1 mL/min/g liver; CLint (mL/min/g liver) human ([2]; Table 2 squaramide series): 28 mL/min/g liver; Cl [3]: 72 mL/min/kg |
| CNS(=O)(=O)c1c(Cl)ccc(NC(=O)Nc2cccc(Cl)c2Cl)c1O [Table 1 Entry 5, N-[4-chloro-2-hydroxy-3-(N″-methylaminosulfonyl)phenyl]-N′-(2,3-dichlorophenyl) urea] | <0.6 mL/min/g liver | <0.6 mL/min/g liver | Clint (mL/min/g liver) rat ([1]; Table 2 squaramide series): 6.7 mL/min/g liver; CLint (mL/min/g liver) human ([2]; Table 2 squaramide series): >50 mL/min/g liver; Cl [3]: 26 mL/min/kg; T½ [3]: 5.4 min |
| CNS(=O)(=O)c1c(Cl)ccc(NC(=O)Nc2ccccc2Br)c1O [Table 1 Entry 6, N′-(2-bromophenyl)-N′-[4-chloro-2-hydroxy-3-(N″-methylaminosulfonyl)phenyl] urea] |  |  | Clint (mL/min/g liver) rat [4]: <0.6 mL/min/g liver; CLint (mL/min/g liver) human [5]: <0.6 mL/min/g liver |
| COCCNS(=O)(=O)c1c(Cl)ccc(NC(=O)Nc2cccc(Cl)c2Cl)c1O [Table 1 Entry 7, N-[4-chloro-2-hydroxy-3-[N″-(2-methoxyethyl)sufonyl]phenyl]-N′-(2,3-dichlorophenyl) urea] | <0.6 mL/min/g liver | <0.6 mL/min/g liver |  |
| CS(=O)(=O)c1c(Cl)ccc(NC(=O)Nc2cccc(Cl)c2Cl)c1O [Table 1 Entry 8, 1-(4Chloro-2-hydroxy-3-methanesulfonyl-phenyl)-3-(2,3-dichloro-phenyl)-urea] | <0.6 mL/min/g liver | <0.6 mL/min/g liver |  |
| CS(=O)(=O)c1c(C#N)ccc(NC(=O)Nc2ccccc2Br)c1O [Table 1 Entry 9, 1-(2-Bromo-phenyl)-3-(4-cyano-2-hydroxy-3-methanesulfonyl-phenyl)-urea] | <0.6 mL/min/g liver | <0.6 mL/min/g liver |  |
| N#Cc1ccc(NC(=O)Nc2ccccc2Br)c(O)c1Br [Table 1 Entry 14, 1-(3-Bromo-4-cyano-2-hydroxy-phenyl)-3-(2-bromo-phenyl)-urea] |  |  | Clint (mL/min/g liver) rat [4]: 27 mL/min/g liver; CLint (mL/min/g liver) human [5]: 3.7 mL/min/g liver |
| N-(4-chloro-2-hydroxy-3-aminosulfonylphenyl)-N′-(2,3-dichlorophenyl) urea sodium salt [Example 1] | <0.6 mL/min/g liver | <0.6 mL/min/g liver | Clint (mL/min/g liver) rat ([1]; Table 2 squaramide series): <0.6 mL/min/g liver; CLint (mL/min/g liver) human ([2]; Table 2 squaramide series): <0.6 mL/min/g liver; Cl [3]: 4.6 mL/min/kg; T½ [3]: 636 min |

More lines, main results first:

| Clint (mL/min/g liver) rat ([1]; Table 1 diphenylureas) | CLint (mL/min/g liver) human ([2]; Table 1 diphenylureas) | Molecule | further results |
| --- | --- | --- | --- |
|  | 11.3 mL/min/g liver | CCCc1c(C#N)ccc(NC(=O)Nc2ccccc2Br)c1O [Table 1 Entry 10, 1-(2-Bromo-phenyl)-3-(4-cyano-2-hydroxy-3-propyl-phenyl)-urea] | melting point: 174 to 175 °C |
|  | 2.8 mL/min/g liver | CCC(C)c1c(C#N)ccc(NC(=O)Nc2ccccc2Br)c1O (stereo not shown) [Table 1 Entry 11, 1-(2-Bromo-phenyl)-3-[4-cyano-2-hydroxy-3-(1-methyl-propyl)-phenyl]-urea] |  |
|  | 2.4 mL/min/g liver | CCCC(C)c1c(C#N)ccc(NC(=O)Nc2ccccc2Br)c1O (stereo not shown) [Table 1 Entry 12, 1-(2-Bromo-phenyl)-3-[4-cyano-2-hydroxy-3-(1-methyl-butyl)-phenyl]-urea] |  |
|  | 7.6 mL/min/g liver | CC(C)Cc1c(C#N)ccc(NC(=O)Nc2ccccc2Br)c1O [Table 1 Entry 13, 1-(2-Bromo-phenyl)-3-(4-cyano-2-hydroxy-3-isobutyl-phenyl)-urea] |  |
| 2.6 mL/min/g liver | 4.1 mL/min/g liver | C[S+]([O-])c1c(Cl)ccc(NC(=O)Nc2cccc(Cl)c2Cl)c1O (stereo not shown) [Table 1 Entry 15, 1-(4-Chloro-2-hydroxy-3-methanesulfinyl-phenyl)-3-(2,3-dichloro-phenyl)-urea] |  |
| 1.3 mL/min/g liver | 11 mL/min/g liver | NS(=O)(=O)Cc1c(Cl)ccc(NC(=O)Nc2cccc(Cl)c2Cl)c1O [Table 1 Entry 16, {6-Chloro-3-[3-(2,3-dichloro-phenyl)-ureido]-2-hydroxy-phenyl}-methanesulfonamide] |  |
| 5.2 mL/min/g liver | 15.4 mL/min/g liver | NC(=O)c1c(Cl)ccc(NC(=O)Nc2ccccc2Br)c1O [Table 1 Entry 17, 3-[3-(2-Bromo-phenyl)-ureido]-6-chloro-2-hydroxy-benzamide] |  |
| 9.3 mL/min/g liver | 11 mL/min/g liver | O=C(Nc1ccc(Cl)c(C(=O)Nc2ccccc2)c1O)Nc1cccc(Cl)c1Cl [Table 1 Entry 18, 6-Chloro-3-[3-(2,3-dichloro-phenyl)-ureido]-2-hydroxy-N-phenyl-benzamide] | melting point: 244 to 245 °C |
| 24 mL/min/g liver | 21 mL/min/g liver | O=C(Nc1ccc(Cl)c(C(=O)N2CCOCC2)c1O)Nc1cccc(Cl)c1Cl [Table 1 Entry 19, 1-[4-Chloro-2-hydroxy-3-(1-morpholin-4-yl-methanoyl)-phenyl]-3-(2,3-dichloro-phenyl)-urea] |  |
